This is an account of results in paper PMC7544095, “Human ABCB1 with an ABCB11-like degenerate nucleotide binding site maintains transport activity by avoiding nucleotide occlusion” (PLoS Genetics, 2020).

Where two headings read alike, the source gives them in different places.

Data set [1] has as its target T1, ABCB1 E556M (catalytic glutamate mutant) (Homo sapiens, UniProt P08183, E556M).
T1 construct: expressed in transfected cells
Briefly: Hoechst 33342 and calcein-AM accumulation assay in NIH 3T3 cells (transport activity factor). Type of data set: cell-based. Here is the method:
(§1) For measurement of the transport activity of the mutant ABCB1 variants a cell based Hoechst 33342 and calcein-AM accumulation assay was used. Cells (5 × 10^5 ml^-1) in gl-HEPES (20 mM HEPES, 123 mM NaCl, 5 mM KCl, 1.5 mM MgCl2, 1 mM CaCl2, 7 mM glucose) for Hoechst 33342 assay or in gl-PBS for calcein-AM assay were pre-incubated in the presence or absence of specific ABCB1 inhibitor (tariquidar (1 μM)) for 10 min at 37°C and then were loaded with different concentrations of Hoechst 33342 (5.0, 1.0, 0.5, 0.1 and 0.025 μM) and calcein-AM (0.5, 0.25, 0.1, 0.05 and 0.025 μM) for 30 min. The samples were washed with ice-cold HEPES or PBS buffer containing 0.5% FBS at 300 × g for 5 min and were kept on ice until flow cytometric measurement. Dead cells were excluded from the analysis on the basis of PI staining. The transport activity of the ABCB1 variants was described by the Transport Activity Factor (TAF) calculated according to the following formula: TAF = (MFinh−MFI0)/MFIinh, wherein MFIinh and MFI0 are the mean fluorescence intensity values measured in the presence and absence of ABCB1 inhibitor, respectively.
(§2) Intracellular Hoechst 33342 and calcein accumulation was measured using a Becton Dickinson FACSAria III Cell Sorter (Becton Dickinson, Mountain View, CA, USA). Hoechst 33342 was excited with a 365 nm UV laser and the emitted blue light was detected using a 445/40 band pass filter. Calcein was excited with a 488 nm blue laser and fluorescence was detected using a 502 long pass dichroic mirror and a 530/20 band pass filter. PI was excited by the 562 nm line of a solid-state laser and the emitted light was detected applying a 590 nm dichroic mirror and a 595/50 nm band-pass filter.

The target of data set [2] is T2, ABCB1 quadruple mutant (S474E, E556M, G1178R, Q1180E) (Homo sapiens, UniProt P08183, E556M/G1178R/Q1180E/S474E).
T2 construct: expressed in transfected cells
T2 sequence (P08183 whole entry S474E/E556M/G1178R/Q1180E): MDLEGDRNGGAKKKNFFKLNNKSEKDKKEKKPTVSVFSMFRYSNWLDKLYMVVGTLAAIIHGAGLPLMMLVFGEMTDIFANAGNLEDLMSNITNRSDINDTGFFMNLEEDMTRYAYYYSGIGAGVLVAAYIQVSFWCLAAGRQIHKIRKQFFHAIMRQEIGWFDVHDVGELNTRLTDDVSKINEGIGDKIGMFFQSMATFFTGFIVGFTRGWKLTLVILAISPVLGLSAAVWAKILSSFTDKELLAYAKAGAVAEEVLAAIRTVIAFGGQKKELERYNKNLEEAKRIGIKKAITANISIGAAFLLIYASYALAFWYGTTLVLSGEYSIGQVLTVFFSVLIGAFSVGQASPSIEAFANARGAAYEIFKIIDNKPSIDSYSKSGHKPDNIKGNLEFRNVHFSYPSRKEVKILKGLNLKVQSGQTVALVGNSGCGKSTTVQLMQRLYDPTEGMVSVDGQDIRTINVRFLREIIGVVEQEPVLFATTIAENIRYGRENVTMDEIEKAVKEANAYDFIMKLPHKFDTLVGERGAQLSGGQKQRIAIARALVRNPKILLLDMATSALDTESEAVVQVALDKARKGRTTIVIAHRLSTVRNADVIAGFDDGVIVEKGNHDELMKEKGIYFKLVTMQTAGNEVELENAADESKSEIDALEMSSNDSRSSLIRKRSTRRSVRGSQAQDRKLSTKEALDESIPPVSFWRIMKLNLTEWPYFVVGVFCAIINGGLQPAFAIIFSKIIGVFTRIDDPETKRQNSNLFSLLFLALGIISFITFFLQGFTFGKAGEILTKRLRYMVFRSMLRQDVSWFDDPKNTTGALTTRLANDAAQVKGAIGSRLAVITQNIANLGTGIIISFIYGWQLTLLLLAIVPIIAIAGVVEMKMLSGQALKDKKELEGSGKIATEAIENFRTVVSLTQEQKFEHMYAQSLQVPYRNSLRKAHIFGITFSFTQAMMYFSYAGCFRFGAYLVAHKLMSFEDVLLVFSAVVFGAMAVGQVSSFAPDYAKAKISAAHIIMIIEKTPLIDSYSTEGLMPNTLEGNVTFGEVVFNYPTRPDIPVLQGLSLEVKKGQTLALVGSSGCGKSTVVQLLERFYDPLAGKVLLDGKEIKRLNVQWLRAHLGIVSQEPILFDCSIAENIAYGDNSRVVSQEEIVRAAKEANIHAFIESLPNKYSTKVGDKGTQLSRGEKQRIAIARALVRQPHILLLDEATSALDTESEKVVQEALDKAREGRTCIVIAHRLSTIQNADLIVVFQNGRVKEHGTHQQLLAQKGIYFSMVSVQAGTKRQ
The description is as above. Type of data set: cell-based. Here is the method: as §1, §2

The test system of a further data set is ABCB1. Set-up: method as in PMID 11121420. Particulars: reported values; read-out: KM for ATP hydrolysis; cited from earlier work.
Data set [3] has as its target T1, ABCB1 E556M (catalytic glutamate mutant). Description: MgATP dependent UIC2 binding in permeabilized NIH 3T3 cells (apparent nucleotide affinity). Type of data set: cell-based. Here is the method: (§3) NIH 3T3 cells (1 × 10^7 cells/ml) were treated with 300 U/ml streptolysin O (SLO, Sigma-Aldrich, Budapest) in the presence of 10 mM DL-Dithiothreitol (DTT), protease inhibitor cocktail (Sigma-Aldrich, Budapest, Hungary) and 100 μg/ml phenylmethanesulfonyl fluoride (PMSF) in phosphate-buffered saline (PBS) containing 1% fetal bovine serum (FBS-PBS) at 37°C for 30 min, allowing permeabilization of approximately 60–80% of the cells (judged by propidium iodide (PI) staining). The reaction was stopped with 10 ml ice-cold FBS-PBS and the cells were centrifuged for 5 min at 525 × g at 4°C. Unbound toxin was removed by washing the cells 3 times with FBS-PBS and the cell pellet was re-suspended in FBS-PBS.
(§4) Apparent affinity of nucleotide binding (KA) was determined as it is described in Barsony et al.. Briefly, MgATP was added in a broad concentration range to permeabilized cells (1 × 10^6 cells/ml) in the presence or absence of 0.5 mM vanadate (Vi) for 30 min at 37°C. Then the samples (without washing) were further incubated with 10 μg/ml UIC2-A647 mAb for another 30 min at 37°C. Following antibody labeling, samples were washed 3 times with ice-cold FBS-PBS and re-suspended in ice-cold FBS-PBS containing 3 μg/ml PI. The UIC2-A647 fluorescence intensity of the PI positive cells was measured by flow cytometry and plotted as a function of the nucleotide concentration. To determine the apparent affinity of ABCB1 to the nucleotides (KA) data points were fitted with the four-parameter Hill function, where Fmin and Fmax values are the minimum and maximum fluorescence intensities.

The target in data set [4] is T2, ABCB1 quadruple mutant (S474E, E556M, G1178R, Q1180E). The description is as above. Type of data set: cell-based. As for the experimental part:
as §3, §4

For data set [5], the target named is T3, wild-type ABCB1 (Homo sapiens, UniProt P08183).
T3 construct: expressed in transfected cells
T3 sequence (P08183 whole entry): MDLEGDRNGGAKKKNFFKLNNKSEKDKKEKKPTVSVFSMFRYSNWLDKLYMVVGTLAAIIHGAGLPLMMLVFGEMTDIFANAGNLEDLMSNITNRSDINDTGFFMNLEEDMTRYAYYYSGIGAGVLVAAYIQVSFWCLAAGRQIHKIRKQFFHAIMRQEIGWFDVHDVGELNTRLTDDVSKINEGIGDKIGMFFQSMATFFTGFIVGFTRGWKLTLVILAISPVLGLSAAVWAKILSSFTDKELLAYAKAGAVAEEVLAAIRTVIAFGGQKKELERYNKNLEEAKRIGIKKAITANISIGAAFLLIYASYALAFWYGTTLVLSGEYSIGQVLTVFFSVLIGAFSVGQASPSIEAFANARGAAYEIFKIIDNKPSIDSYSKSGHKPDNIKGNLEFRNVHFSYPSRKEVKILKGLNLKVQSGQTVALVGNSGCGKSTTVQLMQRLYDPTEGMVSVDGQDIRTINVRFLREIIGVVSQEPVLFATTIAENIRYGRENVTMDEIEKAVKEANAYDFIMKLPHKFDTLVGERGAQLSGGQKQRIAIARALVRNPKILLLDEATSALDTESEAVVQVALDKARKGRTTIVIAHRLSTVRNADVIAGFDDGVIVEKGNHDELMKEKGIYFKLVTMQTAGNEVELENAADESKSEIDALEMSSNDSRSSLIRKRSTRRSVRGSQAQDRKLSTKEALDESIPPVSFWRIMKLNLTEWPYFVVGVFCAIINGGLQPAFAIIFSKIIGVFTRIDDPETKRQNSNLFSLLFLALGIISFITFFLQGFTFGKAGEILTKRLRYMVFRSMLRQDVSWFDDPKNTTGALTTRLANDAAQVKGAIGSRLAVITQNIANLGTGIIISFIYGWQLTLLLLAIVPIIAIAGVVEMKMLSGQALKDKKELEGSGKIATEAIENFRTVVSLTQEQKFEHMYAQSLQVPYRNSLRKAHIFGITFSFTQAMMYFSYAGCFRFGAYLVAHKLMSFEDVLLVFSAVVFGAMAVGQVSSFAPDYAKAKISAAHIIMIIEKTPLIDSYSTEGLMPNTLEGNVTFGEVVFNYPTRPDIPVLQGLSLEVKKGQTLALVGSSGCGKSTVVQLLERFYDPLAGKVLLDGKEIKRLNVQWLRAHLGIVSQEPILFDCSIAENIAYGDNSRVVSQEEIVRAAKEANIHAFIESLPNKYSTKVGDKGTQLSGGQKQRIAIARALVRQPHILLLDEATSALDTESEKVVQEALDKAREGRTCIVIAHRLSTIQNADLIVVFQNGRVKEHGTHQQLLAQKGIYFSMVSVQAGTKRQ
The description is as above. Type of data set: cell-based. Here is the method:
as §3, §4

Data set [6] concerns the target T3, wild-type ABCB1. Description: Hoechst 33342 and calcein-AM accumulation assay in NIH 3T3 cells (transport activity factor). Type of data set: cell-based. The settings on record: wild-type ABCB1 expressing cells, 30 min, 37°C. As for the experimental part:
as §1, §2

T1 sequence (P08183 whole entry E556M): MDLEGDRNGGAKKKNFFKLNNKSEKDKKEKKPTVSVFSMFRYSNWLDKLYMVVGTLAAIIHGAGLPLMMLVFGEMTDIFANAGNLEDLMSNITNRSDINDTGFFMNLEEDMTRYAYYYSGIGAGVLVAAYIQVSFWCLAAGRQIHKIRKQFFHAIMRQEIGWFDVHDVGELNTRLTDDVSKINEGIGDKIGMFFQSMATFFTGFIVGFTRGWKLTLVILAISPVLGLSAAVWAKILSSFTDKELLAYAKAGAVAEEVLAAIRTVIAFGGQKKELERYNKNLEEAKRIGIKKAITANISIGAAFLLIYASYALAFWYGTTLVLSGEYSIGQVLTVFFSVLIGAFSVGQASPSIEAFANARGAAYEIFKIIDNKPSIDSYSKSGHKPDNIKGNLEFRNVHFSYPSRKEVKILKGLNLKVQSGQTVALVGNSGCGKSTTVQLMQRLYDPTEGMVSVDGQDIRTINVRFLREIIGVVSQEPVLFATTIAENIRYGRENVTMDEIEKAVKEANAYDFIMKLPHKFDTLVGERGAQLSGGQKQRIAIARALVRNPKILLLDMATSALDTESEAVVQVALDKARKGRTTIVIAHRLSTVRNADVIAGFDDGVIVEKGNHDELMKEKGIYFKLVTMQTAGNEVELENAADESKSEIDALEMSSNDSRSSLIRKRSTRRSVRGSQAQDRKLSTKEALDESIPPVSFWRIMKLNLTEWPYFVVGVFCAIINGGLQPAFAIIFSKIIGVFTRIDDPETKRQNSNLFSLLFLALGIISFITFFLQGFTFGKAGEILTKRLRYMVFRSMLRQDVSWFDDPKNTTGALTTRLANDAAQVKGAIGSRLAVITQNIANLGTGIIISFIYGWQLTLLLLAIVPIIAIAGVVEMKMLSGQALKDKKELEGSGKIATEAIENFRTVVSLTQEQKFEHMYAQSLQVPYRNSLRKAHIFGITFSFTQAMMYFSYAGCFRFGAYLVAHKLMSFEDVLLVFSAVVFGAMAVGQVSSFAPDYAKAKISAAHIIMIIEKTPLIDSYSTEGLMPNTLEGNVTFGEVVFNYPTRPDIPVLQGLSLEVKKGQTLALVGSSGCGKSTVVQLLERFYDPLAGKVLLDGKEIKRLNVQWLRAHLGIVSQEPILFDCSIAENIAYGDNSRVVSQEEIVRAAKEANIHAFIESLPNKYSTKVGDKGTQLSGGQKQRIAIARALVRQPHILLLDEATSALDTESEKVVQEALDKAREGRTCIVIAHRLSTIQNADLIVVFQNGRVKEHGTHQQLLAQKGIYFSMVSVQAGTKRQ

With `O=C(O)CN(CC(=O)O)Cc1cc2c(cc1O)Oc1cc(O)c(CN(CC(=O)O)CC(=O)O)cc1C21OC(=O)c2ccccc21` [calcein], the transport activity result in data set [1] is listed as “abolished transport activity”. Besides, in data set [2], the “difference in transport activity factor between wild type and quadruple mutant” value is listed as “two-fold difference”; the “intracellular accumulation / efflux by ABCB1” value is listed as “able to limit”.
As to `Nc1ncnc2c1ncn2[C@@H]1O[C@H](COP(=O)(O)OP(=O)([O-])OP(=O)([O-])O)[C@@H](O)[C@H]1O.[Mg+2]` [MgATP], the Km with ABCB1 is 300 to 500 µM. The “apparent affinity of ATP (KA)” value in data set [3] (absence of Vi) is listed as 0.077 ± 0.02 mM. The “apparent affinity of ATP (KA) with Vi” value in data set [3] (treatment with 0.5 mM Vi) was determined as 0.027 ± 0.001 mM. Moreover, in data set [4] (0.5 mM Vi), the “apparent affinity for MgATP/Vi (KA)” value is given as 0.038 ± 0.001 mM. In data set [4] (absence of Vi), the “apparent affinity for MgATP (KA)” value is 1.12 ± 0.6 mM. In addition, on wild-type ABCB1 [5] (wild-type ABCB1, KA vs reported KM), the “apparent affinity (KA) lower than reported KM” value is reported as 3–4 fold. Moreover, the “apparent affinity of MgATP (KA)” value on wild-type ABCB1 [5] (wild-type ABCB1, absence of vanadate, UIC2 binding readout, 37°C) is 1.56 ± 0.46 mM.
As for `CCOc1ccc(-c2nc3ccc(-c4nc5ccc(N6CCN(C)CC6)cc5[nH]4)cc3[nH]2)cc1` [Hoechst 33342], in data set [1] (E556M expressing cells), the transport activity result is “abolished transport activity”. Further, the “intracellular accumulation / efflux by ABCB1” value in data set [2] (quadruple mutant expressing cells) is recorded as “able to limit”; at wild-type ABCB1 [6], “effectively prevented intracellular accumulation”. In addition, the “difference in transport activity factor between wild type and quadruple mutant” value in data set [2] (wild type vs quadruple mutant) was “two-fold difference”.

For orientation: Km means the substrate concentration at which the rate is half of its maximum.
